Measurements from patent US7803930B2, “Antisense modulation of apolipoprotein B-expression” (Isis Pharmaceuticals, Inc., priority 2002, dated 2010).

Legend:
[1] = tested on: mouse apolipoprotein B protein; assay: High fat fed C57BL/6 mice, 6 week timecourse: liver apolipoprotein B protein, immunoblot; type: in vivo; settings: 5, 25, 50 mg/kg, six weeks
Description: Liver protein samples collected at the end of the treatment period were subjected to immunoblot analysis using an antibody directed to mouse apolipoprotein B protein (Gladstone Institute, San Francisco, Calif.).

[2] = Steatosis following long-term treatment (6, 12 and 20 weeks) in high-fat fed mice: histology and liver triglyceride content; type: in vivo, mouse; settings: high fat fed C57Bl/6 mice, 25 mg/kg i.p. twice weekly
Description: Quantitation of liver triglyceride content is also used to assess steatosis. Tissue triglyceride levels are measured using a Triglyceride GPO Assay (Sigma-Aldrich, St. Louis, Mo.).
Male C57Bl/6 mice were treated with twice weekly intraperitoneal injections of 25 mg/kg ISIS 147764 (SEQ ID NO: 109) or 25 mg/kg ISIS 141923 (SEQ ID NO: 858) for 6, 12 and 20 weeks. Saline treated animals served as controls. Each treatment group contained 4 animals. Animals were sacrificed at 6, 12 and 20 weeks and liver tissue was procured for histological analysis and measurement of tissue triglyeride content.

[3] = tested on: mouse apolipoprotein B mRNA; assay: Transgenic mice dosing study (Example 52): mouse apolipoprotein B mRNA in liver; type: in vivo; settings: for % Inhibition, mouse apolipoprotein B mRNA: liver, 12 weeks
Description: A long-term study of inhibition of human apolipoprotein B by ISIS 301012 in C57BL/6NTac-TgN(APOB100) mice (Taconic, Germantown, N.Y.) was conducted for a 3 month period. Mice were dosed intraperitoneally twice a week with 10 or 25 mg/kg ISIS 301012 (SEQ ID No: 247) for 12 weeks. Saline-injected animals served as controls. Each treatment group comprised 4 animals.
The study was terminated forty eight hours after the final injections in the eighth week of treatment, when animals were sacrificed and evaluated for target mRNA levels in liver, apolipoprotein B protein levels in liver and serum cholesterol and liver enzyme levels. In addition, the expression of endogenous mouse apolipoprotein B levels in liver was measured to evaluate any effects of ISIS 301012 on mouse apolipoprotein B mRNA expression.
Human and mouse apolipoprotein B mRNA levels in livers of animals treated for 12 weeks were measured by real-time PCR as described herein. Each result represents the average of data from 4 animals.

[4] = tested on: mouse apolipoprotein B mRNA; assay: Long-term study in lean CD-1 mice (Example 63): apolipoprotein B mRNA in liver; type: in vivo; settings: after one month of treatment
Description: In accordance with the present invention, the toxicity of ISIS 301012 (SEQ ID NO: 247) is investigated in a long-term, 3 month study in mice. Two-month old male and female CD-1 mice (Charles River Laboratories, Wilmington, Mass.) are dosed with 2, 5, 12.5, 25 or 50 mg/kg of ISIS 301012 twice per week for first week, and every 4 days thereafter. The mice are maintained on a standard rodent diet. Saline and control oligonucleotide animals serve as controls and are injected on the same schedule. Each treatment group contains 6 to 10 mice of each sex, and each treatment group is duplicated, one group for a 1 month study termination, the other for a 3 month study termination. After the 1 or 3 month treatment periods, the mice are sacrificed and evaluated for target expression in liver, lipid levels in serum and indicators of toxicity. Liver samples are procured, RNA is isolated and apolipoprotein B mRNA expression is measured by real-time PCR as described in other examples herein. Serum lipids, including total cholesterol, LDL-cholesterol, HDL-cholesterol and triglycerides, are evaluated by routine clinical analysis using an Olympus Clinical Analyzer (Olympus America Inc., Melville, N.Y.). Ratios of LDL-cholesterol to HDL-cholesterol and total cholesterol to HDL-cholesterol are also calculated. […]

[5] = Long-term study in lean CD-1 mice (Example 63): serum lipids and indicators of toxicity (ALT, AST, histology, steatosis); type: in vivo, mouse; settings: one month
Description: In accordance with the present invention, the toxicity of ISIS 301012 (SEQ ID NO: 247) is investigated in a long-term, 3 month study in mice. Two-month old male and female CD-1 mice (Charles River Laboratories, Wilmington, Mass.) are dosed with 2, 5, 12.5, 25 or 50 mg/kg of ISIS 301012 twice per week for first week, and every 4 days thereafter. The mice are maintained on a standard rodent diet. Saline and control oligonucleotide animals serve as controls and are injected on the same schedule. Each treatment group contains 6 to 10 mice of each sex, and each treatment group is duplicated, one group for a 1 month study termination, the other for a 3 month study termination. After the 1 or 3 month treatment periods, the mice are sacrificed and evaluated for target expression in liver, lipid levels in serum and indicators of toxicity. Liver samples are procured, RNA is isolated and apolipoprotein B mRNA expression is measured by real-time PCR as described in other examples herein. Serum lipids, including total cholesterol, LDL-cholesterol, HDL-cholesterol and triglycerides, are evaluated by routine clinical analysis using an Olympus Clinical Analyzer (Olympus America Inc., Melville, N.Y.). Ratios of LDL-cholesterol to HDL-cholesterol and total cholesterol to HDL-cholesterol are also calculated. Analyses of serum ALT and AST, inflammatory infiltrates in tissue and basophilic granules in tissue provide an assessment of toxicities related to the treatment. Hepatic steatosis, or accumulation of lipids in the liver, is assessed by routine histological analysis with oil red 0 stain and measurement of liver tissue triglycerides using a Triglyceride GPO Assay (Sigma-Aldrich, St. Louis, Mo.).
The toxicity study also includes groups of animals allowed to recover following cessation of oligonucleotide treatment. Both male and female CD-1 mice (Charles River Laboratories, Wilmington, Mass.) are treated with 5, 10, 50 mg/kg of ISIS 301012 twice per week for the first week and every 4 days thereafter. Saline and, control oligonucleotide injected animals serve as controls. Each treatment group includes 6 animals per sex. After 3 months of treatment, animals remain untreated for an additional 3 months, after which they are sacrificed. The same parameters are evaluated as in the mice sacrificed immediately after 3 months of treatment.
Additionally, the expected dose-response toxicities were observed. ALT and AST levels, measured by routine clinical procedures on an Olympus Clinical Analyzer (Olympus America Inc., Melville, N.Y.), are increased in mice treated with 25 or 50 mg/kg of ISIS 301012. Tissues were prepared for analysis by routine histological procedures.

Substance	apolipoprotein B protein expression in liver (immunoblot) [1]	liver tissue triglyceride content vs saline treated animals ([2]; 6, 12 and 20 weeks)	steatosis vs saline control animals (histology) ([2]; 12 and 20 weeks)	mouse liver apolipoprotein B mRNA ([3]; 12 weeks of treatment)	% Inhibition, mouse apolipoprotein B mRNA ([3]; 10 mg/kg i.p. twice a week) [%]	% Inhibition, mouse apolipoprotein B mRNA ([3]; 25 mg/kg i.p. twice a week) [%]	reduction of mouse apolipoprotein B mRNA levels in liver [4] [%]	ALT and AST levels ([5]; 25 or 50 mg/kg)	doses at which basophilic granules in liver and kidney tissue were observed [5]	doses at which mild lymphohistiocytic infiltrates were observed in various tissues [5]	steatosis (oil red O staining) [5]
GTCCCTGAAGATGTCAATGC (2'-MOE gapmer, further chemistry not given here) [ISIS 147764]	decreases apolipoprotein B protein expression in liver in a dose-dependent manner	no significant differences	reduced	–	–	–	–	–	–	–	–
ISIS 301012: SEQ ID NO: 247, antisense oligonucleotide targeted to human apolipoprotein B (antisense GCCTCAGTCTGCTTCGCACC; chemistry not given here)	–	–	–	unaffected	6	6	53	increased	above 12.5 mg/kg	above 12.5 mg/kg	no steatosis
